From patent EP0026867A1, “Peptidylphosphonic acids, their preparation and use, and pharmaceutical preparations containing them” (F. HOFFMANN-LA ROCHE & CO. Aktiengesellschaft, priority 1979, dated 1981) come the findings set out here.

≈ marks a conversion by molar mass, not a printed value.

Experiment in all cases: in vitro antibacterial test (M.I.C.)
Common to all, as to type: cell-based

The subject of assay [1] is S. faecalis. Conditions: Enterococcus faecalis. An excerpt: (§1) Die folgende Tabelle gibt die Resultate von in vitro Versuchen unter Verwendung von (1R)-1-(L-Pyroglutamyl-L-norvalyl-L-norvalylamirio)-ethylphosphonsäure gegen einige repräsentative pathogene Mikroorganismen wieder.
Assay [2] relates to Shigella spp.
Text: as §1

Assay [3] has as its system H. influenzae. Conditions: Haemophilus influenzae.
Text: as §1

The subject of assay [4] is Salmonella spp.
Text: as §1

Assay [5] has as its system S. pyogenes. Conditions: Streptococcus pyogenes.
Text: as §1

The test system of assay [6] is S. pneumoniae. The settings on record: Streptococcus pneumoniae.
Text: as §1

Assay [7] concerns Klebsiella spp.
Text: as §1

For assay [8], the system named is S. albus. The settings on record: Staphylococcus albus.
Text: as §1

Assay [9] relates to E. coli. Conditions: Escherichia coli.
Text: as §1

The subject of assay [10] is S. marcescens. Conditions: Serratia marcescens.
Text: as §1

Consider `CCC[C@H](NC(=O)[C@@H]1CCC(=O)N1)C(=O)N[C@@H](CCC)C(=O)N[C@@H](C)P(=O)(O)O` [Beispiel 1, (1R)-1-(L-Pyroglutamyl-L-norvalyl-L-norvalylamino)-ethylphosphonsäure], for which the MIC in assay [1] was found to be 0.05 µg/mL (≈ 0.115 µM); in assay [2], 1.1 µg/mL (≈ 2.53 µM); in assay [3], 0.2 µg/mL (≈ 0.46 µM); in assay [4], 20 µg/mL (≈ 46 µM); in assay [5] it was 16 µg/mL (≈ 36.8 µM); in assay [6], 2.4 µg/mL (≈ 5.52 µM). Besides, the MIC was 16 µg/mL (≈ 36.8 µM) in [7], 16 µg/mL (≈ 36.8 µM) in assay [8], 0.25 µg/mL (≈ 0.575 µM) in assay [9] and 30 µg/mL (≈ 69.1 µM) in assay [10].
